US20260184726A1, “HETEROCYCLIC COMPOUNDS AS KINASE INHIBITORS, COMPOSITIONS, AND METHODS OF USE THEREOF” (JS INNOMED HOLDINGS LTD., priority 2022, published 2026)

Assays:
BAF3 cells = test: BAF3 Cell Proliferation Assay (CellTiter-Glo, without RET driven, IL-3); type: cell-based; details: Mus musculus; growth inhibition in BAF3 cells, 72 hours, with IL-3; read-out: BAF3 Cellular Activity
Procedure: Compounds disclosed herein were tested for the inhibition BAF3 cells proliferation without RET driven by CellTiter-Glo assay. In this assay, a complete media was prepared by adding 10% fetal bovine serum and 1 ng/ml IL-3 to RPMI-1640 medium (Life technology) for BAF3 cells. BAF3 cells were added to each of 88 wells of a 96 well plate at a seeding density of 2,000 cells/well/95 μL. The cells were allowed to attach to the plate by incubating at 37° C. for 24 hours. The compound was dissolved in DMSO (SIGMA). A solution of test compound was prepared in complete media by serial dilution to obtain the following concentrations: 200 μM, 66.7 μM, 22.2 μM, 7.4 μM, 2.5 μM, 0.82 μM, 0.27 μM, 0.091 μM and […]. The test compound solution (5 μL) was added to each of 80 cell-containing wells. The final concentrations of the compound were following: 10 μM, 3.33 μM, 1.11 μM, 0.37 μM, 0.12 μM, 0.041 μM, 0.014 μM, 0.0046 μM and 0.0015 μM. The final concentration of DMSO is 0.1%. To the 8 remaining cell-containing wells, only complete media (containing 0.1% DMSO) was added to form a control group in order to measure maximal proliferation. To the remaining 8 empty wells, complete media was added to for a vehicle control group in order to measure background. The plates were incubated at 37° C. for 72 hours. 50 μl of CellTiter-Glo® Reagent was added to each well. The contents were mixed for 2 minutes on an orbital shaker to induce cell lysis, and then were incubated at room temperature for 10 minutes to stabilize luminescent signal. Luminescence was recorded on Paradigm. Cell viability (CV %) was calculated relative to vehicle (DMSO) treated control wells. The IC50 was calculated using GraphPad Prism.

BAF3-KIF5B-RET cells = target: T1, BAF3-KIF5B-RET cells (Homo sapiens, UniProt P07949); test: BAF3-KIF5B-RET Cell Proliferation Assay (CellTiter-Glo); type: cell-based; details: growth inhibition, 72 hours; Table 2; read-out: BA/F3-KIF5B-RET Cellular activity
T1 construct: fused on or other part: P33176 (Kinesin-1 heavy chain)
Procedure: Compounds disclosed herein were tested for the inhibition of RET by a cancer cell proliferation assay commonly known as CellTiter-Glo assay. In this assay, a complete media was prepared by adding 10% fetal bovine serum to RPMI-1640 medium (Life technology) for RET-driven cancer cells (BAF3-FIF5B-RET, Ba/F3-KIF5B-RET-G810R, Ba/F3-TEL-RET-M918T or Ba/F3-KIF5B-RET-V804M). Individual RET-driven type of cells were added to each of 88 wells of a 96 well plate at a seeding density of 2,000 cells/well/95 μL. The cells were allowed to attach to the plate by incubating at 37° C. for 24 hours. The compound was dissolved in DMSO (SIGMA). A solution of test compound was prepared in complete media by serial dilution to obtain the following concentrations: 20 μM, 6.67 μM, 2.22 μM, 0.74 μM, 0.25 μM, 0.082 μM, 0.027 μM, 0.0091 μM and 0.0030 μM. The test compound solution (5 μL) was added to each of 80 cell-containing wells. The final concentrations of the compound were following: 1 μM, 0.33 μM, 0.11 μM, 0.037 μM, 0.012 μM, 0.0041 μM, 0.0014 μM, 0.00046 μM and 0.00015 μM. The final concentration of DMSO is 0.1%. To the 8 remaining cell-containing wells, only complete media (containing 0.1% DMSO) was added to form a control group in order to measure maximal proliferation. To the remaining 8 empty wells, complete media was added to for a vehicle control group in order to measure background. The plates were incubated at 37° C. for 72 hours. 50 μl of CellTiter-Glo® Reagent was added to each well. Mix contents for 2 minutes on an orbital shaker to induce cell lysis. Incubate at room temperature for 10 minutes to stabilize luminescent signal. Record luminescence on Paradigm. Cell viability (CV %) was calculated relative to vehicle (DMSO) treated control wells. The IC50 was calculated using GraphPad Prism.

T1 sequence (P07949 whole entry, change not shown, the tested form may be a part): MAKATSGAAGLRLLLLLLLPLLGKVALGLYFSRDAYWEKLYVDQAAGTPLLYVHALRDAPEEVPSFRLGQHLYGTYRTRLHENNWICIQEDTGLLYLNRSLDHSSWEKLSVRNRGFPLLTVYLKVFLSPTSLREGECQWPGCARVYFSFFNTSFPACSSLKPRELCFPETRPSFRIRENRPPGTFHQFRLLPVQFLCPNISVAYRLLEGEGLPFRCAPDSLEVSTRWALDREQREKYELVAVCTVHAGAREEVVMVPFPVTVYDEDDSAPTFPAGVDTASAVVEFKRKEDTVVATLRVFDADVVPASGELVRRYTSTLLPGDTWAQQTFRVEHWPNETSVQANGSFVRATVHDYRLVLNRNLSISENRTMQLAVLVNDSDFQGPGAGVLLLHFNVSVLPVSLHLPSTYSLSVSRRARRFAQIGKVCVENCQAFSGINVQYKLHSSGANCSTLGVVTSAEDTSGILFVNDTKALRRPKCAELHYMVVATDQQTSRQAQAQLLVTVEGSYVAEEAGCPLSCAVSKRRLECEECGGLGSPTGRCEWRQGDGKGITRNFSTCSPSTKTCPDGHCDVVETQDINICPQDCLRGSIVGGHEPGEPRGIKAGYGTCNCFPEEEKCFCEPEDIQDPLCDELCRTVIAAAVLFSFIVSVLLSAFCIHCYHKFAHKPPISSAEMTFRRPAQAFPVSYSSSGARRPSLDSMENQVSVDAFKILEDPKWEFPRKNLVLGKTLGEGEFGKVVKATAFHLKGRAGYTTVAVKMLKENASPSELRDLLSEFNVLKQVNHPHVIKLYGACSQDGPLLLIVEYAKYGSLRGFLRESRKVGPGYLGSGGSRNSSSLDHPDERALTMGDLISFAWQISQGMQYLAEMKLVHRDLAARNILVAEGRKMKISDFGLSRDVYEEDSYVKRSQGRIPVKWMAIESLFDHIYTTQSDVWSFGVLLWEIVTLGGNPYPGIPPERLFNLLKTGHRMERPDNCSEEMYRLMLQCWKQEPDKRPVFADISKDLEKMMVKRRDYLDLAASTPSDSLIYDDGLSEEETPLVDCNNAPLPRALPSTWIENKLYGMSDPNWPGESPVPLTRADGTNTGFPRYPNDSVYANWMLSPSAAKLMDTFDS

**Q.** Which results are given for `COc1ccc(CN2C3CC2CN(c2ccc(-c4cc(-c5ccc(C(C)(C)O)nn5)cn5ncc(C#N)c45)cn2)C3)cn1` [Example 19, 6-(6-(2-hydroxypropan-2-yl)pyridazin-3-yl)-4-(6-(6-((6-methoxypyridin-3-yl)methyl)-3,6-diazabicyclo[3.1.1]heptan-3-yl)pyridin-3-yl)pyrazolo[1,5-a]pyridine-3-carbonitrile]?
**A.** IC50 (BAF3 cells): 1260 nM; GI50 (BAF3-KIF5B-RET cells): 1.7 nM

**Q.** With `COc1ccc(CN2C3CC2CN(c2cnc(-c4cc(-c5ccc(C(C)(C)O)nn5)cn5ncc(C#N)c45)cn2)C3)cn1` [Example 20, 6-(6-(2-hydroxypropan-2-yl)pyridazin-3-yl)-4-(5-(6-((6-methoxypyridin-3-yl)methyl)-3,6-diazabicyclo[3.1.1]heptan-3-yl)pyrazin-2-yl)pyrazolo[1,5-a]pyridine-3-carbonitrile] as the compound, how does the IC50 (BAF3 cells) read?
**A.** 1480 nM

**Q.** What about the GI50 (BAF3-KIF5B-RET cells) of the same compound?
**A.** 6.7 nM

**Q.** For `CC(C)(O)c1ccc(-c2cc(-c3ccc(N4C[C@@H]5[C@H](C4)[C@H]5NC(=O)c4ncccc4Cl)nc3)c3c(C#N)cnn3c2)nc1` [Example 21, 3-chloro-N-((1R,5S,6s)-3-(5-(3-cyano-6-(5-(2-hydroxypropan-2-yl)pyridin-2-yl)pyrazolo[1,5-a]pyridin-4-yl)pyridin-2-yl)-3-azabicyclo[3.1.0]hexan-6-yl)picolinamide], which IC50 (BAF3 cells) is on record?
**A.** 351 nM

**Q.** And the GI50 (BAF3-KIF5B-RET cells)?
**A.** 28.8 nM

**Q.** For `COc1ccc(CN2C3CC2CN(c2ccc(-c4cc(-c5ccc(C(C)(C)O)cc5)cn5ncc(C#N)c45)cn2)C3)cn1` [Example 22, 6-(4-(2-hydroxypropan-2-yl)phenyl)-4-(6-(6-((6-methoxypyridin-3-yl)methyl)-3,6-diazabicyclo[3.1.1]heptan-3-yl)pyridin-3-yl)pyrazolo[1,5-a]pyridine-3-carbonitrile], which IC50 (BAF3 cells) is on record?
**A.** 756 nM

**Q.** And the GI50 (BAF3-KIF5B-RET cells)?
**A.** 0.7 nM

**Q.** How did the IC50 (BAF3 cells) turn out when `COc1ccc(CN2C3CC2CN(c2ccc(-c4cc(-c5ncc(C(C)(C)O)cc5F)cn5ncc(C#N)c45)cn2)C3)cn1` [Example 24, 6-(3-fluoro-5-(2-hydroxypropan-2-yl)pyridin-2-yl)-4-(6-(6-((6-methoxypyridin-3-yl)methyl)-3,6-diazabicyclo[3.1.1]heptan-3-yl)pyridin-3-yl)pyrazolo[1,5-a]pyridine-3-carbonitrile] was run?
**A.** 2540 nM

**Q.** And the GI50 (BAF3-KIF5B-RET cells)?
**A.** 3.5 nM

**Q.** For `COc1ccc(C(=O)N2C3CC2CN(c2ccc(-c4cc(-c5ccc(C(C)(C)O)cn5)cn5ncc(C#N)c45)cn2)C3)cn1` [Example 25, 6-(5-(2-hydroxypropan-2-yl)pyridin-2-yl)-4-(6-(6-(6-methoxynicotinoyl)-3,6-diazabicyclo[3.1.1]heptan-3-yl)pyridin-3-yl)pyrazolo[1,5-a]pyridine-3-carbonitrile], which IC50 (BAF3 cells) is on record?
**A.** 6650 nM

**Q.** What about the GI50 (BAF3-KIF5B-RET cells) of the same compound?
**A.** 2.7 nM

**Q.** Which IC50 (BAF3 cells) does the source give for `COc1ccc(CN2C3CC2CN(c2ccc(-c4cc(-c5cc(C(C)(C)O)nn5C)cn5ncc(C#N)c45)cn2)C3)cn1` [Example 26, 6-(3-(2-hydroxypropan-2-yl)-1-methyl-1H-pyrazol-5-yl)-4-(6-(6-((6-methoxypyridin-3-yl)methyl)-3,6-diazabicyclo[3.1.1]heptan-3-yl)pyridin-3-yl)pyrazolo[1,5-a]pyridine-3-carbonitrile] here?
**A.** > 10000 nM

**Q.** And the GI50 (BAF3-KIF5B-RET cells)?
**A.** 46.8 nM

**Q.** Which results are given for `COc1ccc(CN2C3CC2CN(c2ccc(-c4cc(-c5ccc(C(C)(C)O)s5)cn5ncc(C#N)c45)cn2)C3)cn1` [Example 27, 6-(5-(2-hydroxypropan-2-yl)thiophen-2-yl)-4-(6-(6-((6-methoxypyridin-3-yl)methyl)-3,6-diazabicyclo[3.1.1]heptan-3-yl)pyridin-3-yl)pyrazolo[1,5-a]pyridine-3-carbonitrile]?
**A.** IC50 (BAF3 cells): 913 nM; GI50 (BAF3-KIF5B-RET cells): 0.7 nM

**Q.** `COc1ccc(CN2C3CC2CN(c2ccc(-c4cc(-c5cc(C(C)(C)NC(C)=O)n(C)n5)cn5ncc(C#N)c45)cn2)C3)cn1` [Example 28, N-(2-(3-(3-cyano-4-(6-(6-((6-methoxypyridin-3-yl)methyl)-3,6-diazabicyclo[3.1.1]heptan-3-yl)pyridin-3-yl)pyrazolo[1,5-a]pyridin-6-yl)-1-methyl-1H-pyrazol-5-yl)propan-2-yl)acetamide] was tested. Which IC50 (BAF3 cells) did it give?
**A.** 2330 nM

**Q.** What about the GI50 (BAF3-KIF5B-RET cells) of the same compound?
**A.** 4 nM

**Q.** Which IC50 (BAF3 cells) does the source give for `COc1ccc(CN2C3CC2CN(c2ccc(-c4cc(-c5ccc(OCC(C)(C)O)cn5)cn5ncc(C#N)c45)cn2)C3)cn1` [Example 32, 6-(5-(2-hydroxy-2-methylpropoxy)pyridin-2-yl)-4-(6-(6-((6-methoxypyridin-3-yl)methyl)-3,6-diazabicyclo[3.1.1]heptan-3-yl)pyridin-3-yl)pyrazolo[1,5-a]pyridine-3-carbonitrile] here?
**A.** 1620 nM

**Q.** And the GI50 (BAF3-KIF5B-RET cells)?
**A.** 1.4 nM

**Q.** What does the source list for `COc1ccc(CN2C3CC2CN(c2ccc(-c4cc(-c5ccc(OCC(C)(C)O)nc5)cn5ncc(C#N)c45)cn2)C3)cn1` [Example 33, 6-(6-(2-hydroxy-2-methylpropoxy)pyridin-3-yl)-4-(6-(6-((6-methoxypyridin-3-yl)methyl)-3,6-diazabicyclo[3.1.1]heptan-3-yl)pyridin-3-yl)pyrazolo[1,5-a]pyridine-3-carbonitrile]?
**A.** IC50 (BAF3 cells): 2580 nM; GI50 (BAF3-KIF5B-RET cells): 5.1 nM

**Q.** Which results are given for `COc1ccc(CN2C3CC2CN(c2ccc(-c4cc(-c5ccn(CC(C)(C)O)n5)cn5ncc(C#N)c45)cn2)C3)cn1` [Example 34, 6-(1-(2-hydroxy-2-methylpropyl)-1H-pyrazol-3-yl)-4-(6-(6-((6-methoxypyridin-3-yl)methyl)-3,6-diazabicyclo[3.1.1]heptan-3-yl)pyridin-3-yl)pyrazolo[1,5-a]pyridine-3-carbonitrile]?
**A.** IC50 (BAF3 cells): 1800 nM; GI50 (BAF3-KIF5B-RET cells): 0.7 nM

**Q.** Which results are given for `COc1ccc(CN2C3CC2CN(c2ccc(-c4cc(-c5cnn(CC(C)(C)O)c5)cn5ncc(C#N)c45)cn2)C3)cn1` [Example 35, 6-(1-(2-hydroxy-2-methylpropyl)-1H-pyrazol-4-yl)-4-(6-(6-((6-methoxypyridin-3-yl)methyl)-3,6-diazabicyclo[3.1.1]heptan-3-yl)pyridin-3-yl)pyrazolo[1,5-a]pyridine-3-carbonitrile]?
**A.** IC50 (BAF3 cells): 340 nM; GI50 (BAF3-KIF5B-RET cells): 0.5 nM

**Q.** Which results are given for `COc1ccc(CN2C3CC2CN(c2ccc(-c4cc(-c5ccc(S(N)(=O)=O)cn5)cn5ncc(C#N)c45)cn2)C3)cn1` [Example 36, 6-(3-cyano-4-(6-(6-((6-methoxypyridin-3-yl)methyl)-3,6-diazabicyclo[3.1.1]heptan-3-yl)pyridin-3-yl)pyrazolo[1,5-a]pyridin-6-yl)pyridine-3-sulfonamide]?
**A.** IC50 (BAF3 cells): 8210 nM; GI50 (BAF3-KIF5B-RET cells): 16.6 nM
